Patent US10849982B2, “C3-carbon linked glutarimide degronimers for target protein degradation” (C4 Therapeutics, Inc., priority 2016, dated 2020)

Columns and labels:
[1] = system: MOLT4.2 (CRBN Knock Out) cell line; experiment: Cell viability analysis (CellTiter-Glo 2.0), MOLT4.2; format: cell-based; conditions: MOLT4.2, 72 hr
Protocol: (§1) CellTiter-Glo® 2.0 Assay was purchased from Promega (Medison, Wis., USA). MOLT4.1 (WT) cell line was purchased from ATCC (Manassas, Va., USA) and MOLT4.2 (CRBN Knock Out) cell line was generated in house. Cell culture flasks and 384-well microplates were acquired from VWR (Radnor, Pa., USA).
(§2) MOLT4.1 and MOLT4.2 cell viability was determined based on quantification of ATP using CellTiter-Glo® 2.0 luminescent Assay kit, which signals the presence of metabolically-active cells. Briefly, MOLT4.1 and MOLT4.2 cells were seeded into 384-well plates at a cell density of 750 cells per well, the plates were kept at 37° C. with 5% CO2 overnight. On the following day, test compounds were added to the cells from a top concentration of 1 μM with 10 points, half log titration in duplicates. The cells treated in the absence of the test compound were the negative control and the cells treated in the absence of CellTiter-Glo® 2.0 were the positive control. At the same day of compound treatment, CellTiter-Glo® 2.0 was added to a plate with cells treated in the absence of the test compound to establish Cytostatic control value (Cro). Cells treated with the test compound were incubated for 72 hr. CellTiter-Glo reagent was then added to the cells and Luminescence was acquired on EnVision™ Multilabel Reader (PerkinElmer, Santa Clara, Calif., USA).
(§3) MOLT4.1 and MOLT4.2 cell viability was determined based on quantification of ATP using CellTiter-Glo® 2.0 luminescent Assay kit, which signals the presence of metabolically-active cells. Briefly, MOLT4.1 and MOLT4.2 cells were seeded into 384-well plates at a cell density of 750 cells per well, the plates were kept at 37° C. with 5% CO2 overnight. On the following day, test compounds were added to the cells from a top concentration of 1 μM with 10 points, half log titration in duplicates. […] CellTiter-Glo reagent was then added to the cells and Luminescence was acquired on EnVision™ Multilabel Reader (PerkinElmer, Santa Clara, Calif., USA).

MOLT4.1 (WT) cell line = experiment: Cell viability analysis (CellTiter-Glo 2.0), MOLT4.1; format: cell-based; conditions: MOLT4.1, 72 hr
Protocol: as §1, §2, §3

BRD4 BD1 = BRD4 BD1 (Homo sapiens (Human), UniProt O60885); experiment: HiBit assay, BRD4 BD1 degradation analysis; format: cell-based; conditions: BRD4_BD1, 293T.29 cells, 3 hr
Protocol: DMEM no-phenol red medium and fetal bovine serum (FBS) were purchased from Gibco (Grand Island, N.Y., USA). Nano-Glo® HiBiT Lytic Assay System was purchased from Promega (Medison, Wis., USA). 293T.29 (HiBiT-BRD4 BD1) cell line was generated in house, ectopically expressing BRD4 BD1 domain with HiBiT fusion tag. Cell culture flasks and 384-well microplates were acquired from VWR (Radnor, Pa., USA).
BRD4 BD1 degradation was determined based on quantification of luminescent signal using Nano-Glo® HiBiT Lytic Assay kit. Test compounds were added to the 384-well plate from a top concentration of 1 μM with 11 points, half log titration in quadruplicates. 293T.29 cells were added into 384-well plates at a cell density of 15000 cells per well. The plates were kept at 37° C. with 5% CO2 for 3 hours. The cells treated in the absence of the test compound were the negative control and the cells treated with 30 nM of a known BRD4 degrader were the positive control. After 3-hour incubation, Nano-Glo® HiBiT Lytic Assay reagents were added to the cells. Luminescence was acquired on EnVision™ Multilabel Reader (PerkinElmer, Santa Clara, Calif., USA).

CRBN-DDB1 = CRBN-DDB1 (Homo sapiens (Human), UniProt Q96SW2); experiment: CRBN-DDB1 fluorescence polarization (FP) binding assay; conditions: displacement of Thalidomide-Alexa Fluor or Pomalidomide-fluorescein probe; Table 2
Protocol: Measuring compound ligand binding to CRBN-DDB1 was carried out using an established sensitive and quantitative in vitro fluorescence polarization (FP) based binding assay. […] Compounds were dispensed from serially diluted DMSO stock into black 384-well compatible fluorescence polarization plates using an Echo acoustic dispenser. Compound binding to CRBN-DDB1 was measured by displacement of either a (−)-Thalidomide-Alexa Fluor® or Pomalidomide-fluorescein conjugated probe dye. […] Matching control wells excluding CRBN-DDB1 were used to correct for background fluorescence. Plates were read on an Envision plate reader with appropriate FP filter sets. The corrected S (perpendicular) and P (parallel) values were used to calculate fluorescence polarization (FP) with the following equation: FP=1000*(S−G*P)/(S+G*P).

CRBN-DDB1, sequence (Q96SW2 whole entry): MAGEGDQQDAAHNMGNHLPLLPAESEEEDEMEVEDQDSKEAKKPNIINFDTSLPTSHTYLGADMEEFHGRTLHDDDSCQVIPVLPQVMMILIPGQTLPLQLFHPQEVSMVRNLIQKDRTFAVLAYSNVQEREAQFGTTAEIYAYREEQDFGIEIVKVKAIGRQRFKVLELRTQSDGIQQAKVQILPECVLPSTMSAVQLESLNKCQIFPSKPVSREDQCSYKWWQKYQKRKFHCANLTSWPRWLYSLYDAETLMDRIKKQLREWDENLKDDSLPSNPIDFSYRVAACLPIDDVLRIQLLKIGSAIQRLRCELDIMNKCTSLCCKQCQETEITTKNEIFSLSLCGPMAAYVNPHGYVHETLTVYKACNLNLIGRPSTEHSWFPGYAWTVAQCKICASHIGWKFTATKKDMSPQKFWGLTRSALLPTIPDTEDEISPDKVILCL
CRBN-DDB1, sequence (Q16531 whole entry partner): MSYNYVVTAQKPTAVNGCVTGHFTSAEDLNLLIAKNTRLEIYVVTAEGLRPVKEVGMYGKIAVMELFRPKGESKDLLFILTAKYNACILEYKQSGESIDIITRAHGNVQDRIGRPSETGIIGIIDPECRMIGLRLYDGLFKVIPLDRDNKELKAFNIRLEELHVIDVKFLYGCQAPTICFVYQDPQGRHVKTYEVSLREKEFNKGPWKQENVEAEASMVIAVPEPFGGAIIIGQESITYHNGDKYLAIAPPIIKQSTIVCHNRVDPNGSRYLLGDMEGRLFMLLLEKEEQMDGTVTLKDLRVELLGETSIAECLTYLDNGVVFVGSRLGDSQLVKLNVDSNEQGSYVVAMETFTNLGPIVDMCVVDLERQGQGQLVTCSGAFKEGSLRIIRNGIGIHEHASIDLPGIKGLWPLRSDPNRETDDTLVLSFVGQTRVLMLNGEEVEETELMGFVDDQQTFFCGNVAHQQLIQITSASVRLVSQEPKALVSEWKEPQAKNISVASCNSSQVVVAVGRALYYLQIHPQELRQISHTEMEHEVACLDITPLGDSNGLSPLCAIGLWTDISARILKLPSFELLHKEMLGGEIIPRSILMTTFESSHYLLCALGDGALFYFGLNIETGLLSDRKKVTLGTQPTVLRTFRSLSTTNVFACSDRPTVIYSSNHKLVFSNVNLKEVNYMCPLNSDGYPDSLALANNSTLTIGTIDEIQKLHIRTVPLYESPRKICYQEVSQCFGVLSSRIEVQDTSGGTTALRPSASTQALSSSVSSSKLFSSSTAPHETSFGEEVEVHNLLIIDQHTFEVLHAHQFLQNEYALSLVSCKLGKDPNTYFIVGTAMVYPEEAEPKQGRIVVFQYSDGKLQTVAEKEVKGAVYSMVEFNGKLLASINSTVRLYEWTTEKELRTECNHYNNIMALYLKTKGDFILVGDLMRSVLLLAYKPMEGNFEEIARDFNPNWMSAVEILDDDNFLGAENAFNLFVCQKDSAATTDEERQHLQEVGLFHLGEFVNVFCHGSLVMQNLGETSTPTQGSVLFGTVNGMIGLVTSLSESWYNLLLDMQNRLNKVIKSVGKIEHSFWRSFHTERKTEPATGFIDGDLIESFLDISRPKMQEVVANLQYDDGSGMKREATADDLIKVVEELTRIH

Cc1sc2c(c1C)C(c1ccc(Cl)cc1)=N[C@@H](CC(=O)NCCCCCCCC(=O)Nc1ccc3c(C4CCC(=O)NC4=O)nn(C)c3c1)c1nnc(C)n1-2 (stereo partly drawn) [Degronimer 1, 8-(2-((S)-4-(4-chlorophenyl)-2,3,9-trimethyl-6H-thieno[3,2-f][1,2,4]triazolo[4,3-a][1,4]diazepin-6-yl)acetamido)-N-(3-(2,6-dioxopiperidin-3-yl)-1-methyl-1H-indazol-6-yl)octanamide]
Emax [1]: > 50% | GI50 [1]: > 1000 nM | LD50 (nM) [1]: + (>1 μM = +) | Emax (MOLT4.1 (WT) cell line): 0 to 50% | GI50 (MOLT4.1 (WT) cell line): 100 to 1000 nM | LD50 (nM) (MOLT4.1 (WT) cell line): + (>1 μM = +) | DC50 (BRD4 BD1): > 830 nM | Kd (CRBN-DDB1): < 10000 nM
